# Legend:
# Assay in all cases: relative viability (nuclei count vs DMSO), 5 days (fraction); higher = more cells survive
# [1] = system: NCI-H1648
# Method in brief: (§1)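 Each reported value is a median over duplicate plates. It expresses relative viability: treated-well nuclei count divided by vehicle-well nuclei count. Lung cancer cell lines in 1536-well plates were dosed by pin tool a day after seeding, alone with one drug or with a fixed anchor-drug dose plus five library-drug doses (not always all listed) in √10 steps, and nuclei were counted after 5 days.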
# [2] = system: NCI-H1437
# Method in brief: as §1
# [3] = system: NCI-H1703
# Method in brief: as §1
# [4] = system: NCI-H2085
# Method in brief: as §1
# [5] = system: HCC-44
# Method in brief: as §1
# [6] = system: HCC-366
# Method in brief: as §1
# [7] = system: LOU-NH91
# Method in brief: as §1
# [8] = system: NCI-H3122
# Method in brief: as §1
# [9] = system: NCI-H1299
# Method in brief: as §1
# [10] = system: IA-LM
# Method in brief: as §1
# [11] = system: A549
# Method in brief: as §1
# [12] = system: Calu-6
# Method in brief: as §1
# [13] = system: EBC-1
# Method in brief: as §1
compound,measurement,setting,value
COc1nc(C)cnc1NS(=O)(=O)c1cccnc1-c1ccc(-c2nnco2)cc1 [Zibotentan] + NC(=O)Nc1cc(-c2cccc(F)c2)sc1C(=O)N[C@H]1CCCNC1 [AZD7762] (partner 0.2 µM),relative viability,[1]; first compound 0.08 µM,0.637
same,relative viability,[1]; first compound 0.253 µM,0.596
same,relative viability,[1]; first compound 0.8 µM,0.596
same,relative viability,[1]; first compound 2.53 µM,0.63
same,relative viability,[2]; first compound 0.08 µM,1.14
same,relative viability,[2]; first compound 0.253 µM,0.897
same,relative viability,[2]; first compound 0.8 µM,1.05
same,relative viability,[2]; first compound 2.53 µM,1.15
same,relative viability,[3]; first compound 0.08 µM,0.139
same,relative viability,[3]; first compound 0.253 µM,0.114
same,relative viability,[3]; first compound 0.8 µM,0.108
same,relative viability,[3]; first compound 2.53 µM,0.121
same,relative viability,[4]; first compound 0.08 µM,1.06
same,relative viability,[4]; first compound 0.253 µM,0.953
same,relative viability,[4]; first compound 0.8 µM,0.826
same,relative viability,[4]; first compound 2.53 µM,0.959
same,relative viability,[5]; first compound 0.08 µM,1.01
same,relative viability,[5]; first compound 0.253 µM,0.962
same,relative viability,[5]; first compound 0.8 µM,0.968
same,relative viability,[5]; first compound 2.53 µM,1.03
same,relative viability,[6]; first compound 0.08 µM,0.28
same,relative viability,[6]; first compound 0.253 µM,0.208
same,relative viability,[6]; first compound 0.8 µM,0.103
same,relative viability,[6]; first compound 2.53 µM,0.343
same,relative viability,[7]; first compound 0.08 µM,0.838
same,relative viability,[7]; first compound 0.253 µM,0.702
same,relative viability,[7]; first compound 0.8 µM,0.773
same,relative viability,[7]; first compound 2.53 µM,0.795
same,relative viability,[8]; first compound 0.08 µM,1.01
same,relative viability,[8]; first compound 0.253 µM,0.999
same,relative viability,[8]; first compound 0.8 µM,0.915
same,relative viability,[8]; first compound 2.53 µM,0.966
COc1nc(C)cnc1NS(=O)(=O)c1cccnc1-c1ccc(-c2nnco2)cc1 [Zibotentan] + O=C(c1cc(Cc2n[nH]c(=O)c3ccccc23)ccc1F)N1CCN(C(=O)C2CC2)CC1 [Olaparib] (partner 8 µM),relative viability,[1]; first compound 0.08 µM,0.853
same,relative viability,[1]; first compound 0.253 µM,0.503
same,relative viability,[1]; first compound 0.8 µM,0.85
same,relative viability,[1]; first compound 2.53 µM,0.954
same,relative viability,[2]; first compound 0.08 µM,0.64
same,relative viability,[2]; first compound 0.253 µM,0.629
same,relative viability,[2]; first compound 0.8 µM,0.617
same,relative viability,[2]; first compound 2.53 µM,0.621
same,relative viability,[9]; first compound 0.08 µM,1.01
same,relative viability,[9]; first compound 0.253 µM,0.906
same,relative viability,[9]; first compound 0.8 µM,0.973
same,relative viability,[9]; first compound 2.53 µM,1
same,relative viability,[10]; first compound 0.08 µM,0.966
same,relative viability,[10]; first compound 0.253 µM,0.86
same,relative viability,[10]; first compound 0.8 µM,0.938
same,relative viability,[10]; first compound 2.53 µM,0.824
same,relative viability,[3]; first compound 0.08 µM,0.476
same,relative viability,[3]; first compound 0.253 µM,0.368
same,relative viability,[3]; first compound 0.8 µM,0.435
same,relative viability,[3]; first compound 2.53 µM,0.292
same,relative viability,[11]; first compound 0.08 µM,0.365
same,relative viability,[11]; first compound 0.253 µM,0.31
same,relative viability,[11]; first compound 0.8 µM,0.333
same,relative viability,[11]; first compound 2.53 µM,0.32
same,relative viability,[4]; first compound 0.08 µM,0.742
same,relative viability,[4]; first compound 0.253 µM,0.734
same,relative viability,[4]; first compound 0.8 µM,0.856
same,relative viability,[4]; first compound 2.53 µM,0.801
same,relative viability,[5]; first compound 0.08 µM,0.958
same,relative viability,[5]; first compound 0.253 µM,0.965
same,relative viability,[5]; first compound 0.8 µM,0.98
same,relative viability,[5]; first compound 2.53 µM,0.957
same,relative viability,[12]; first compound 0.08 µM,0.61
same,relative viability,[12]; first compound 0.253 µM,0.518
same,relative viability,[12]; first compound 0.8 µM,0.621
same,relative viability,[12]; first compound 2.53 µM,0.555
same,relative viability,[6]; first compound 0.08 µM,0.396
same,relative viability,[6]; first compound 0.253 µM,0.34
same,relative viability,[6]; first compound 0.8 µM,0.342
same,relative viability,[6]; first compound 2.53 µM,0.365
same,relative viability,[7]; first compound 0.08 µM,0.908
same,relative viability,[7]; first compound 0.253 µM,0.854
same,relative viability,[7]; first compound 0.8 µM,0.999
same,relative viability,[7]; first compound 2.53 µM,0.947
same,relative viability,[13]; first compound 0.08 µM,0.698
same,relative viability,[13]; first compound 0.253 µM,0.713
same,relative viability,[13]; first compound 0.8 µM,0.827
same,relative viability,[13]; first compound 2.53 µM,0.651
same,relative viability,[8]; first compound 0.08 µM,0.625
same,relative viability,[8]; first compound 0.253 µM,0.549
same,relative viability,[8]; first compound 0.8 µM,0.581
same,relative viability,[8]; first compound 2.53 µM,0.608

# Reference: the supplement of paper PMC10307832
